Literature values in patent EP0919231A1, “Injectable parasiticide composition and process for the preparation” (Biogenesis, S.A., priority 1997, dated 1999).

Experiments:
Haemonchus contortus = details: strain resistant to benzimidazoles; intravenous compared with oral administration
[1] = test system: Trichostrongylus colubriformis; details: strain resistant to benzimidazoles; intravenous compared with oral administration
[2] = bovines; for detected in plasma, time postreatment: metabolite after administering albendazole or phenbendazole respectively; for detection of parent drug in plasma: after administering albendazole or phenbendazole, found in the gastrointestinal lumen

Row | SMILES | effectiveness intravenous versus oral (Haemonchus contortus) | effectiveness intravenous versus oral [1] | detected in plasma, time postreatment [2] | detection of parent drug in plasma [2]
1 | COC(=O)Nc1nc2ccc([S+]([O-])c3ccccc3)cc2[nH]1 (stereo not drawn) [oxphendazole, methyl ester of [(5-phenyl-sulphinyl)-1H-benzimidazol-2-il] carbamic acid] | more effective | more effective | ≤ 36 h | –
2 | CCCSc1ccc2nc(NC(=O)OC)[nH]c2c1 [albendazole] | – | – | – | not detected
3 | CCC[S+]([O-])c1ccc2[nH]c(NC(=O)OC)nc2c1 (stereo not drawn) [ricobendazole, methyl ester of [(5-propyl-sulphinyl)-1H-benzimidazol-2-il] carbamic acid] | – | – | ≤ 36 h | –
4 | COC(=O)Nc1nc2ccc(Sc3ccccc3)cc2[nH]1 [phenbendazole] | – | – | – | not detected
